Source: patent EP2752664A1, “Label-free method for the detection of analytes” (priority 2013, dated 2014)
Where two headings read alike, the source gives them in different places.

What was measured:
[1] = biological target: T1, mannose/Concanavalin A interaction (Canavalia ensiformis, UniProt P02866); details: SPR measurements reported earlier; PAA Man values normalized per mannose; read-out: IC50 value determined using SPR inhibition assay; cited from earlier work
[2] = biological target: T1, mannose/Concanavalin A interaction; experiment: Inhibition competition assay with hydrogel particles, surface energy read out via RICM (SCP-RICM, inventive method); type: binding; details: for IC50: read-out: IC50 value determined using an inventive method

Compound: CO[C@H]1O[C@H](CO)[C@@H](O)[C@H](O)[C@@H]1O [α-methyl-D-mannose]
- IC50 [1]: 750 µM
- contact areas of functionalized hydrogel particles and surface energies ([2]; 10 mM analyte added into the measurement cell (critical level of competitive analyte)): completely vanish
- surface energy ([2]; analyte at lower concentrations up to 5 mM, particles still in contact with the carrier surface): gradually decreases with the concentration of added analyte
- IC50 ([2]; inverted system: PEG-ConA particles against a mannose functionalized surface (Fig. 7b)): 649 ± 76.8 µM
- IC50 ([2]; mannose functionalized hydrogel particles, ConA immobilized on the solid carrier (Fig. 7a), Hill fit of normalized surface energy, PAA Man values normalized per mannose): 618 ± 19.1 µM
